According to patent publication US12108762B2, “Methods of controlling crop pests using aromatic amide insect repellents, methods of making aromatic amide insect repellents, and novel aromatic amide insect repellents” (priority 2020, dated 2024):
Entries after “also recorded” stand apart in the source; their conditions may differ.

How the values were obtained:
Type in all cases: in vivo
Drosophila melanogaster [1] = test: One-choice (single-trap) olfactory trap assay; conditions: for repellency compared with DEET, one-choice trap assay: 25 μl of 25% by weight in DMSO on filter paper, 10% ACV attractant, 6 hours (FIG. 10) and 24 hours (FIG. 13); for fly death during the 6-hour screen: starved flies
Experimental: (§1) The D. melanogaster assays served as a model for SWD repellency. Forty different aromatic amides were studied at a 25% concentration by weight in DMSO, and the fruit fly chemosensory behaviors in response thereto were characterized. […]
(§2) Flies were monitored throughout their life cycle. Five-day-old flies (10 male and 10 females) were selected per assay, and starved for a predetermined length of time (e.g., 20 hours). After starvation, two different assays were used to study the olfactory related responses.
FIG. 7A is a diagram of a single-trap olfactory assay. Flies 105 were placed in a cylindrical chamber 100 containing a trap 110. The trap 110 was fashioned from an upturned 1.5 ml micro-centrifuge tube where the tapered end was trimmed away. A pipette tip 120 was cut to form a funnel and inserted into the bottom of the inverted micro-centrifuge tube 110. Then, filter paper 130 was placed between the pipette tip 120 and tip of micro-centrifuge tube 110. The pipette tip 120 was placed so that entering flies could not make physical contact with the filter paper 130. The filter paper 130 was placed in this manner so that when the filter paper 130 was treated with the repellent solution, the flies would only be able to smell at a distance and should be repelled even in the presence of an attractant.
A 25 μl sample of test compound at 25% concentration was applied to the filter paper 130 in order to provide the odor source. At the bottom of the trap 110, 125 μl of 10% apple cider vinegar (ACV) was placed as an attractant. Trials were conducted for 24 hours to visualize the number of flies 105 entering the trap 110. Typically, flies that entered the trap 110 contacted the liquid ACV and died in the ACV. Flies were counted and recorded at 4, 6, and 24 hours. No control other than DEET was used for this experiment, because it was a single trap, comparing the number of flies 105 repelled by the repellent versus the number of flies 105 interacting with the attractant (ACV).
(§3) The different assays assigned results as follows. For the single-choice olfactory assay, the numbers of flies were counted according to (1) those that entered the trap, (2) those that stayed outside the trap and lived, and (3) those that died outside the trap. For the two-choice olfactory assay, the numbers of flies were counted according to (1) those that entered the control trap, (2) those that entered the trap containing the repellent, (3) those that stayed outside of both traps and lived, and (4) those that died outside the traps. For the gustatory assay, the numbers of flies were counted according to those that had (1) a red-colored abdomen, (2) a blue-colored abdomen, (3) a purple abdomen, and (4) no added color to their abdomen. A nonparametric Mann-Whitney U test was used to compare the statistical differences between assays using DEET and the same assays using one of the present repellents for all trials.

Drosophila melanogaster [2] = test: Two-choice trap olfactory assay; conditions: for interaction with control trap in comparison with repellent-treated trap: low participation; for trap preference (control trap versus repellent-treated trap): DMSO control vs 25 μl of 25% by weight in DMSO
Experimental: as §1, §2
FIG. 7B is a diagram of a 2-choice trap olfactory assay. Two ACV traps 110a-b were prepared as above, in a cylinder 150 from upturned 1.5 ml micro-centrifuge tubes with the tapered end trimmed away, and a pipette 120a-b inserted into the inverted micro-centrifuge tube. In the cylinder 150, one trap 110a was treated with 25 μl of DMSO (as a control) on the filter paper 135, and the other trap 110b with the 25 μl of the 25% by weight solution of the test compound in DMSO applied to the filter paper 130. 125 μl of 10% ACV, diluted with water, was placed in the bottom of the traps 110a-b. Both traps contained filter paper as prepared in the one-trap assay. All trials were screened for 24 hours, and the number of flies 105 in each trap was counted. Positions of the traps (i.e., left or right, relative to the location of the chamber 150 in the room) were randomized. The number of flies 105 in each trap 110a and 110b were counted and recorded at 4, 6 and 24 hours.
as §3

Drosophila melanogaster [3] = test: Gustatory assay (fructose preference, food colouring); conditions: 1 hour feeding; for gustatory repellency (preference for repellent-treated sugar versus control-treated sugar): 35 mM fructose with 5 mM repellent vs 25 mM fructose control; for gustatory repellency compared with DEET: 5 mM repellent, FIG. 12
Experimental: The D. melanogaster assays served as a model for SWD repellency. Forty different aromatic amides were studied at a 25% concentration by weight in DMSO, and the fruit fly chemosensory behaviors in response thereto were characterized.
In the gustatory assay, the consumption of sugar (from a solution in a gel) treated at varying concentrations of the present repellent compounds was compared to the consumption of control-treated sugar. For the habituation assay, flies were tested over repeated exposures to the present repellent compounds to measure changes in behavioral preference for the compounds.
Flies were continuously monitored throughout their lifecycle. In doing so, 3- to 5-day-old flies (half male and half female) were selected and starved for 20 hours. Flies were then introduced to 96-well plates 200 with wells 210a-220vv that were alternately filled with two different sugar solutions, as shown in FIG. 8. Wells 210a-210vv were filled with 25 mM fructose in DMSO (as a control), colored with red food coloring, and wells 220a-220vv were filled with […] fructose mixed with 5 mM of the present insect repellent in DMSO, colored with blue food coloring. The food coloring is nontoxic, so it has no effect on preference. Using an established protocol (Montell, C., et al., Avoiding DEET through insect gustatory receptors. NIH Neuron 67(4), 2010, 555-561: doi:10.1016/j.neuron.2010.07.006), flies selected between the fructose control or fructose mixed with aromatic amide repellent. Tests were performed on at least one group of about 50 males and at least one group of 50 females. Flies were placed in the dark for 1 hour, then the food coloring in the fly's abdomen was visualized under a compound microscope. The color of the abdomen was noted, along with the intensity, providing a quantitative idea of how much sugar each fly consumed, and from which type of well (control vs. mixed with repellent). The flies were fed for one hour so that the amount of food coloring was significant enough to be visible. A preference index was made to define the amount of food coloring consumed and assess the degree of repellent avoidance via gustatory processes.
as §3

[4] = one-choice trap, 25% concentration
[5] = one-choice trap, 25% concentration, 6 hours

| Structure (SMILES) | repellency compared with DEET, one-choice trap assay (Drosophila melanogaster [1]) | fly death during the 6-hour screen (Drosophila melanogaster [1]; [5]) | participation in choosing either trap (Drosophila melanogaster [2]; 25% by weight, 6 hours) | trap preference (control trap versus repellent-treated trap) (Drosophila melanogaster [2]; 6 hours) | other results |
| --- | --- | --- | --- | --- | --- |
| Cc1cccc(C(=O)N2CCCCC2)c1 [Compound 1mC] | more effective than DEET | no fly death | less overall participation | preference for the control trap | aversion (no flies entering the single-choice trap) (Drosophila melanogaster [1]; [4]): 100%; ranking among repellents in the one-choice assay (Drosophila melanogaster [1]; [4]): most effective repellents; repellency (Drosophila melanogaster [1]; [5]): significant repellency; average number of flies that chose a trap in 6 hours (Drosophila melanogaster [2]; 25% by weight, 20 flies per assay, 6 hours): 1 flies; interaction with control trap in comparison with repellent-treated trap (Drosophila melanogaster [2]; 25% by weight): more flies interacted with the control trap |
| Cc1cccc(C(=O)N2CCOCC2)c1 [Compound 1mD] | – | – | – | – | gustatory repellency (preference for repellent-treated sugar versus control-treated sugar) (Drosophila melanogaster [3]): act as a gustatory repellent |
| Cc1cccc(C(=O)N2CCN(C)CC2)c1 [Compound 1mE, 1-methyl-4-(3-methylbenzoyl)piperazine] | more effective than DEET | some fly death | – | – | – |
| Cc1ccccc1C(=O)N1CCOCC1 [Compound 1oD] | more effective than DEET | some fly death | less overall participation | preference for the control trap | – |
| Cc1ccccc1C(=O)N1CCN(C)CC1 [Compound 1oE] | – | – | less overall participation | preference for the control trap | interaction with control trap in comparison with repellent-treated trap (Drosophila melanogaster [2]; 25% by weight): more flies interacted with the control trap |
| O=C(c1cccc(F)c1)N1CCCCC1 [Compound 2mC] | more effective than DEET | – | – | – | – |
| O=C(c1ccccc1F)N1CCCC1 [Compound 2oB] | – | – | less overall participation | preference for the control trap | interaction with control trap in comparison with repellent-treated trap (Drosophila melanogaster [2]; 25% by weight): more flies interacted with the control trap |
| O=C(c1ccccc1F)N1CCCCC1 [Compound 2oC] | more effective than DEET | no fly death | – | – | repellency (Drosophila melanogaster [1]; [5]): significant repellency |
| O=C(c1ccccc1F)N1CCOCC1 [Compound 2oD] | more effective than DEET | – | – | – | – |
| O=C(c1cccc(C(F)(F)F)c1)N1CCCC1 [Compound 3mB] | more effective than DEET | no fly death | less overall participation | preference for the control trap | repellency (Drosophila melanogaster [1]; [5]): significant repellency |
| O=C(c1cccc(C(F)(F)F)c1)N1CCCCC1 [Compound 3mC] | more effective than DEET | no fly death | less overall participation | preference for the control trap | repellency (Drosophila melanogaster [1]; [5]): significant repellency; gustatory repellency compared with DEET (Drosophila melanogaster [3]): significantly worse than DEET; gustatory repellency (preference for repellent-treated sugar versus control-treated sugar) (Drosophila melanogaster [3]): act as a gustatory repellent |
| O=C(c1cccc(C(F)(F)F)c1)N1CCOCC1 [Compound 3mD] | more effective than DEET | some fly death | – | – | – |
| O=C(c1ccccc1C(F)(F)F)N1CCCC1 [Compound 3oB] | more effective than DEET | – | – | – | – |
| CN1CCN(C(=O)c2ccccc2C(F)(F)F)CC1 [Compound 3oE] | more effective than DEET | – | – | – | – |
| O=C(c1cccc([N+](=O)[O-])c1)N1CCCCC1 [Compound 4mC] | more effective than DEET; also recorded: significantly better than DEET | all the flies were dead | – | – | average number of flies that entered the trap (Drosophila melanogaster [1]; one-choice trap, 25% concentration, 20 flies per assay, 6 hours): 5 flies; fly mortality (Drosophila melanogaster [1]; one-choice trap, 25% concentration, exposure in the gas phase): high mortality |
| O=C(c1cccc([N+](=O)[O-])c1)N1CCOCC1 [Compound 4mD] | – | – | – | – | gustatory repellency (preference for repellent-treated sugar versus control-treated sugar) (Drosophila melanogaster [3]): act as a gustatory repellent |
| CN1CCN(C(=O)c2ccccc2[N+](=O)[O-])CC1 [Compound 4oE] | more effective than DEET | some fly death | – | – | – |
| COc1cccc(C(=O)N2CCCC2)c1 [Compound 5mB] | – | – | much higher mean participation | significantly greater preference for the control trap | gustatory repellency compared with DEET (Drosophila melanogaster [3]): worse than DEET; gustatory repellency (preference for repellent-treated sugar versus control-treated sugar) (Drosophila melanogaster [3]): act as a gustatory repellent; also recorded: slightly lower preference |
| COc1cccc(C(=O)N2CCCCC2)c1 [Compound 5mC] | more effective than DEET | – | – | – | gustatory repellency (preference for repellent-treated sugar versus control-treated sugar) (Drosophila melanogaster [3]): act as a gustatory repellent |
| COc1cccc(C(=O)N2CCN(C)CC2)c1 [Compound 5mE] | – | – | less overall participation | preference for the control trap | – |
| COc1ccccc1C(=O)N1CCCCC1 [Compound 5oC] | more effective than DEET | – | – | – | – |
| Nc1cccc(C(=O)N2CCCC2)c1 [Compound 6mB] | – | – | higher mean participation | preferred the control trap | – |
| CN1CCN(C(=O)c2cccc(N)c2)CC1 [Compound 6mE] | more effective than DEET | – | – | – | – |
| Nc1ccccc1C(=O)N1CCCCC1 [Compound 6oC] | more effective than DEET | – | – | – | – |
